Experiments:
[1] = species: Homo sapiens; assay: Inhibition of human tryptase assessed as residual enzyme activity using chromogenic H-D-HHT-Ala-Arg-pNA 2AcOH as substrate at 10 uM pre-incubated for 10 mins measured for 30 mins by spectrophotometry relative to untreated control
[2] = target: T1, Chymase (Homo sapiens) (UniProt P23946); assay: Inhibition of human chymase assessed as residual enzyme activity using chromogenic N-succinyl-Ala-Ala-Pro-Phe p-nitroanilide as substrate at 10 uM pre-incubated for 10 mins by spectrophotometry relative to untreated control; assay type: single protein
T1 sequence (whole entry): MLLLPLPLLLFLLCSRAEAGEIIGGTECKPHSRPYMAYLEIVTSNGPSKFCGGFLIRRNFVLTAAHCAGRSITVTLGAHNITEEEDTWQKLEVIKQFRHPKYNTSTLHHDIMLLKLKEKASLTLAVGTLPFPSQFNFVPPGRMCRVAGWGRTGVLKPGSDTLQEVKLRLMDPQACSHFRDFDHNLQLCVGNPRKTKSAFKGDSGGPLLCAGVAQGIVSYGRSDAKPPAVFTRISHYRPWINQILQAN

[3] = Inhibition of bovine pancreatic trypsin using chromogenic N-alpha-bemzoyl-arginine ethyl ester hydrochloride as substrate pre-incubated for 10 mins by spectrophotometry; design: species or system Bos taurus
[4] = Ratio of Ki for bovine pancreatic trypsin to Ki for human thrombin

SMILES	Ratio [1]	Ratio [2]	Ki [3] [µM]	Ratio Ki [4]
O=S(=O)(/C=C/c1cccc(Cl)c1)Nc1cccc(OCc2cn(Cc3cc4ccccc4[nH]3)nn2)c1	0.99	1		
Nc1cccc(/C=C/S(=O)(=O)Nc2cccc(OCc3cn(Cc4cc5ccccc5s4)nn3)c2)c1	0.99	0.88	71	41
O=[N+]([O-])c1cccc(/C=C/S(=O)(=O)Nc2cccc(OCc3cn(Cc4cccnc4)nn3)c2)c1	1	1		
O=S(=O)(/C=C/c1cccc(Cl)c1)Nc1cccc(OCc2cn(Cc3cc4ccccc4s3)nn2)c1			729	
O=[N+]([O-])c1cccc(/C=C/S(=O)(=O)Nc2cccc(OCc3cn(Cc4nc5ccccc5s4)nn3)c2)c1	1	0.95	187	41
O=S(=O)(/C=C/c1cccc(Cl)c1)Nc1cccc(OCc2cn(Cc3ccccc3)nn2)c1	0.97	1		
O=[N+]([O-])c1cccc(/C=C/S(=O)(=O)Nc2cccc(OCc3cn(Cc4cc5ccccc5s4)nn3)c2)c1	1	0.89	122	71
O=S(=O)(/C=C/c1cccc(Cl)c1)Nc1cccc(OCc2cn(Cc3ccsc3Br)nn2)c1	0.98	0.96		
O=S(=O)(/C=C/c1cccc(F)c1)Nc1cccc(OCc2cn(Cc3cc4ccccc4s3)nn2)c1	0.95	0.95	119	48
O=[N+]([O-])c1cccc(/C=C/S(=O)(=O)Nc2cccc(OCc3cn(Cc4cc5ccccc5[nH]4)nn3)c2)c1	0.98	1		
O=S(=O)(/C=C/c1cccc(Cl)c1)Nc1cccc(OCc2cn(Cc3ccsc3)nn2)c1	0.95	0.99		
O=S(=O)(/C=C/c1cccc(Cl)c1)Nc1cccc(OCc2cn(Cc3cccnc3)nn2)c1	0.99	0.98		
O=S(=O)(/C=C/c1cccc(C(F)(F)F)c1)Nc1cccc(OCc2cn(Cc3cc4ccccc4s3)nn2)c1	0.97	0.99	127	64
O=S(=O)(/C=C/c1cccc(F)c1)Nc1cccc(OCc2cn(Cc3cccnc3)nn2)c1	1	0.99		
O=S(=O)(/C=C/c1cccc(C(F)(F)F)c1)Nc1cccc(OCc2cn(Cc3cccnc3)nn2)c1	0.96	1		
O=S(=O)(/C=C/c1cccc(Cl)c1)Nc1cccc(OCc2cn(Cc3nc4ccccc4s3)nn2)c1	0.98	1		

Next, values leading:

Ratio [1]	Ratio [2]	Ki [3] [µM]	Ratio Ki [4]	SMILES
1	1			COc1cccc(/C=C/S(=O)(=O)Nc2cccc(-c3nnn(Cc4cccc(Cl)c4)n3)c2)c1
1	0.97			O=S(=O)(/C=C/c1cccc(C(F)(F)F)c1)Nc1cccc(-c2nnn(Cc3cccc(Cl)c3)n2)c1
0.97	0.95			CS(=O)(=O)Nc1cccc(-c2nnn(Cc3cccc(Cl)c3)n2)c1
0.97	0.91			O=S(=O)(/C=C/c1cccc(F)c1)Nc1cccc(-c2nnn(Cc3cccc(Cl)c3)n2)c1
1	0.95			O=S(=O)(/C=C/c1cccc(Br)c1)Nc1cccc(-c2nnn(Cc3cccc(Cl)c3)n2)c1
1	0.94			O=[N+]([O-])c1cccc(/C=C/S(=O)(=O)Nc2cccc(-c3nnn(Cc4cccc(Cl)c4)n3)c2)c1
1	0.97			O=S(=O)(/C=C/c1cccc(Cl)c1)Nc1cccc(-c2nnn(Cc3cccc(Cl)c3)n2)c1
1	0.99			Cc1cccc(/C=C/S(=O)(=O)Nc2cccc(-c3nnn(Cc4cccc(Cl)c4)n3)c2)c1
0.95	0.97			O=S(=O)(/C=C/c1cccc(Cl)c1)Nc1cccc(OCc2cn(Cc3cccc(Cl)c3)nn2)c1
